Like-named read-outs stand apart in the source and are kept apart here.
Assays:
human STING (HAQ) = human STING (HAQ) (Homo sapiens, UniProt Q86WV6, G230A/H232R/R293Q); experiment: biochemical; type: binding; details: for ΔTm at 100 µM: read-out: DSF huSTING (HAQ) ΔTm (° C.)
Procedure: (§1) DSF monitors thermal unfolding of protein in the presence of a fluorescent dye and is typically performed using a real-time PCR instrument. The temperature at which a protein unfolds is measured by an increase in the fluorescence of a dye with affinity for hydrophobic parts of the protein that are gradually exposed during unfolding. The fluorescence of the dye is quenched in aqueous environments, but when the dye associates with hydrophobic sites on the unfolded protein, its fluorescence increases. The fluorescence intensity is plotted as a function of the temperature, generating a sigmoidal curve that can be described by a two-state transition. The inflection point of the transition curve (Tm) is calculated using simple equations such as that of Boltzman.
(§2) Sealed plates were then placed into a Bio-Rad CFX96/C1000 thermocycler and FRET scanning mode (λ^excitation of 490 nm and reads at λ^emission of 570 nm) was used to measure fluorescence intensity. […] The melting point (Tm) obtained for STING protein alone was subtracted from Tm obtained for protein incubated with ligand to generate ΔTm values listed in the table below.
(§3) These additional compounds were tested as described above, however the protein concentration was 2 μM.

huSTING (WT) [1] = molecular target: T1, huSTING (WT) (Homo sapiens (Human), UniProt Q86WV6, H232R); experiment: Differential scanning fluorimetry (DSF), huSTING (WT); type: binding; details: for ΔTm at 100 µM: read-out: DSF huSTING (WT) ΔTm (° C.)
Procedure: as §1, §2, §3
Target sequence in this assay (Q86WV6 other isoform, or with tags, fused parts or gaps, stated change not applied): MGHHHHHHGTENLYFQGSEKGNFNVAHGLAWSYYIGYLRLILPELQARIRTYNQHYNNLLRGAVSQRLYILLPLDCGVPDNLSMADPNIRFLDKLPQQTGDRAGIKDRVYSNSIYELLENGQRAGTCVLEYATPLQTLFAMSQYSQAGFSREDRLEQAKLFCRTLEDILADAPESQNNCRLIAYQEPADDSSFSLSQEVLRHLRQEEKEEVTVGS

huSTING (HAQ) = huSTING (HAQ) (Homo sapiens (Human), UniProt Q86WV6, G230A/H232R/R293Q/R71H); experiment: THP-1 reporter cell line assay, THP-1 STING Lucia ISG cells; type: cell-based
huSTING (WT) [2] = molecular target: T1, huSTING (WT); experiment: THP-1 reporter cell line assay, THP-1-Dual KI-hSTING-R232 cells; type: cell-based
Target sequence in this assay (Q86WV6 whole entry H232R): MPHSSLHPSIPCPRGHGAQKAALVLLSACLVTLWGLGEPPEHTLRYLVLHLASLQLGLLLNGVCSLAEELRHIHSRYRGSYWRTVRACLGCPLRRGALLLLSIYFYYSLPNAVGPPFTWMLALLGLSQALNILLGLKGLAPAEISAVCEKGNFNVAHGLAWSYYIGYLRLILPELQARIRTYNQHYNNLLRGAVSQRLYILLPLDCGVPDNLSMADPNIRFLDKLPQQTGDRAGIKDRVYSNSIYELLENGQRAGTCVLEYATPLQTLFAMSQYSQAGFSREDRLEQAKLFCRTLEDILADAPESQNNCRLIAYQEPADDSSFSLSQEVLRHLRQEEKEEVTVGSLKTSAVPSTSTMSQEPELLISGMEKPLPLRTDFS

[3] = 1 μM protein, compound at 100 μM
[4] = THP-1 STING Lucia ISG cells, 24 h, top concentration 50 μM, read-out: Cellular EC50 huSTING (HAQ)
[5] = read-out: Cellular EC50 huSTING (WT)
[6] = compound 100 μM, protein concentration 2 μM
[7] = THP-1 STING Lucia ISG cells, modified method, top concentration 40 μM, pin tool, EnVision, read-out: Cellular EC50 huSTING (HAQ)

Chain of huSTING (HAQ) (Q86WV6 whole entry R71H/G230A/H232R/R293Q): as the sequence (Q86WV6 whole entry H232R) above, with R71H, G230A, R293Q counted along it
Chain of human STING (HAQ) (Q86WV6 whole entry G230A/H232R/R293Q, looked up): as the sequence (Q86WV6 whole entry H232R) above, with G230A, R293Q counted along it

| Compound | ΔTm at 100 µM (human STING (HAQ)) [°C] | ΔTm at 100 µM (huSTING (WT) [1]; [3]) [°C] | EC50 (huSTING (HAQ); [4]) [µM] | EC50 (huSTING (WT) [2]; [5]) [µM] | DSF huSTING (WT) ΔTm (° C.) (huSTING (WT) [1]; [6]) [°C] | EC50 (huSTING (HAQ); [7]) [µM] | further results |
| --- | --- | --- | --- | --- | --- | --- | --- |
| CCOC(=O)c1sc2ccccc2c1COc1ccc(C(N)=O)cc1 [Example 5, Ethyl 3-((4-carbamoylphenoxy)methyl)benzo[b]thiophene-2-carboxylate] | -0.48 | 0.07 | 8.22 | > 50 |  |  |  |
| CCOC(=O)c1sc2cc(Cl)ccc2c1COc1ccc(C(N)=O)cc1 [Example 9, Ethyl 3-((4-carbamoylphenoxy)methyl)-6-chlorobenzo[b]thiophene-2-carboxylate] | 0.71 | 0.51 | > 50 | > 50 |  |  |  |
| CCOC(=O)c1sc2c(Cl)cccc2c1COc1ccc(C(N)=O)cc1 [Example 11, Ethyl 3-((4-carbamoylphenoxy)methyl)-7-chlorobenzo[b]thiophene-2-carboxylate] | 0.29 | 0.13 | 16.2 | 25.6 |  |  |  |
| CCOC(=O)c1sc2ccc(Cl)cc2c1COc1ccc(C(N)=O)cc1 [Example 13, Ethyl 3-((4-carbamoylphenoxy)methyl)-5-chlorobenzo[b]thiophene-2-carboxylate] | -0.15 | -0.59 | > 50 | > 50 |  |  |  |
| NC(=O)c1ccc(OCc2c(C(=O)O)sc3cccc(Cl)c23)c(F)c1F [Example 67, 3-((4-Carbamoyl-2,3-difluorophenoxy)methyl)-4-chlorobenzo[b]thiophene-2-carboxylic acid] | 11.1 | 3.04 | > 50 | > 50 |  |  |  |
| NC(=O)c1cc(F)c(OCc2c(C(=O)O)sc3cccc(Cl)c23)c(F)c1 [Example 69, 3-((4-Carbamoyl-2,6-difluorophenoxy)methyl)-4-chlorobenzo[b]thiophene-2-carboxylic acid] |  |  |  |  |  |  | DSF huSTING (HAQ) ΔTm (° C.) (human STING (HAQ); [3]): 22.08 °C; ΔTm at 100 µM (huSTING (WT) [1]): 9.49 °C |
| NC(=O)c1ccc(NCc2c(C(=O)O)sc3cccc(Cl)c23)cc1 [Example 76, 3-(((4-Carbamoylphenyl)amino)methyl)-4-chlorobenzo[b]thiophene-2-carboxylic acid] | 2.43 | -2.72 | 2.68 | 0.217 |  |  |  |
| Cc1cccc2sc(C(=O)O)c(COc3ccc(C(N)=O)cc3)c12 [Example 78, 3-((4-Carbamoylphenoxy)methyl)-4-methylbenzo[b]thiophene-2-carboxylic acid] | 16 | 6.62 | > 50 | > 50 |  |  |  |
| NC(=O)c1cc(F)c(OCc2c(C(=O)O)sc3c(F)ccc(F)c23)c(F)c1 [Example 80, 3-((4-Carbamoyl-2,6-difluorophenoxy)methyl)-4,7-difluorobenzo[b]thiophene-2-carboxylic acid] | 14.9 | 6.69 | 38.6 | > 50 |  |  |  |
| NC(=O)c1ccc(OCc2c(C(=O)O)sc3c(F)ccc(F)c23)cc1 [Example 82, 3-((4-Carbamoylphenoxy)methyl)-4,7-difluorobenzo[b]thiophene-2-carboxylic acid] | 9.29 | 3.15 | > 50 | > 50 |  |  |  |
| NC(=O)c1ccc(OCc2c(C(=O)O)sc3ccc(F)c(Cl)c23)cc1 [Example 84, 3-((4-Carbamoylphenoxy)methyl)-4-chloro-5-fluorobenzo[b]thiophene-2-carboxylic acid] | 6.48 | 0.18 | > 50 | > 50 |  |  |  |
| NC(=O)c1cc(F)c(OCc2c(C(=O)O)sc3ccc(F)c(Cl)c23)c(F)c1 [Example 86, 3-((4-Carbamoyl-2,6-difluorophenoxy)methyl)-4-chloro-5-fluorobenzo[b]thiophene-2-carboxylic acid] | 10.1 | 3.33 | > 50 | > 50 |  |  |  |
| CN(C)C(=O)COC(=O)c1sc2cccc(Cl)c2c1COc1c(F)cc(C(N)=O)cc1F [Example 127, 2-(Dimethylamino)-2-oxoethyl 3-((4-carbamoyl-2,6-difluorophenoxy)methyl)-4-chlorobenzo[b]thiophene-2-carboxylate] |  |  |  | 0.229 | −2.44 | 0.026 |  |
| CCOP(=O)(COC(=O)c1sc2cccc(Cl)c2c1COc1c(F)cc(C(N)=O)cc1F)OCC [Example 143, (Diethoxyphosphoryl)methyl 3-((4-carbamoyl-2,6-difluorophenoxy)methyl)-4-chlorobenzo[b]thiophene-2-carboxylate] |  |  |  |  |  |  | DSF huSTING (HAQ) ΔTm (° C.) (human STING (HAQ)): −2.10 °C; DSF huSTING (WT) ΔTm (° C.) (huSTING (WT) [1]): −1.93 °C; EC50 (huSTING (HAQ)): 0.018 µM; EC50 (huSTING (WT) [2]): 0.381 µM |
| NC(=O)CNC(=O)c1sc2cccc(Cl)c2c1COc1c(F)cc(C(N)=O)cc1F [Example 148, N-(2-Amino-2-oxoethyl)-3-((4-carbamoyl-2,6-difluorophenoxy)methyl)-4-chlorobenzo[b]thiophene-2-carboxamide] |  |  |  | > 40 | −0.37 | 4.07 |  |
| COCCOC(=O)c1sc2cccc(Cl)c2c1COc1c(F)cc(C(N)=O)cc1F [Example 158, 2-Methoxyethyl 3-((4-carbamoyl-2,6-difluorophenoxy)methyl)-4-chlorobenzo[b]thiophene-2-carboxylate] |  |  |  |  |  |  | DSF huSTING (HAQ) ΔTm (° C.) (human STING (HAQ)): −1.58 °C; DSF huSTING (WT) ΔTm (° C.) (huSTING (WT) [1]): −1.90 °C; EC50 (huSTING (HAQ)): 0.132 µM; EC50 (huSTING (WT) [2]): 0.949 µM |
| CC(=O)NCCOC(=O)c1sc2cccc(Cl)c2c1COc1c(F)cc(C(N)=O)cc1F [Example 159, 2-Acetamidoethyl 3-((4-carbamoyl-2,6-difluorophenoxy)methyl)-4-chlorobenzo[b]thiophene-2-carboxylate] |  |  |  | 0.325 | −1.02 | 0.044 |  |
| COC(=O)NCCOC(=O)c1sc2cccc(Cl)c2c1COc1c(F)cc(C(N)=O)cc1F [Example 160, 2-((Methoxycarbonyl)amino)ethyl 3-((4-carbamoyl-2,6-difluorophenoxy)methyl)-4-chlorobenzo[b]thiophene-2-carboxylate] |  |  |  | 0.298 | −1.05 | 0.035 |  |
| COC(=O)N(C)CCOC(=O)c1sc2cccc(Cl)c2c1COc1c(F)cc(C(N)=O)cc1F [Example 161, 2-((Methoxycarbonyl)(methyl)amino)ethyl 3-((4-carbamoyl-2,6-difluorophenoxy)methyl)-4-chlorobenzo[b]thiophene-2-carboxylate] |  |  |  | 0.669 | −1.76 | 0.062 |  |
| COCCCOC(=O)c1sc2cccc(Cl)c2c1COc1c(F)cc(C(N)=O)cc1F [Example 162, 3-Methoxypropyl 3-((4-carbamoyl-2,6-difluorophenoxy)methyl)-4-chlorobenzo[b]thiophene-2-carboxylate] |  |  |  | 0.302 | −1.01 | 0.041 |  |
| NC(=O)c1ccc(OCc2c(C(=O)NCCc3ccccc3)sc3cccc(Br)c23)cc1 [Example 167, 4-Bromo-3-((4-carbamoylphenoxy)methyl)-N-phenethylbenzo[b]thiophene-2-carboxamide] |  |  |  | 25.6 | 2.51 | 23.2 |  |
